Laboratory results: publication PMC3992874 (Journal of nuclear medicine : official publication, Society …, 2013)

Legend:
[1] = system: VCAM-1 expression, SKOV3ip1 (platinum resistant) tumors; type: in vivo, mouse; conditions: SKOV3ip1 mice, single IP 25 mg/kg; 111In-tVCAM-4 omentum biodistribution; n=3
LP9 mesothelial cells = assay: Viability of carboplatin-treated LP9 mesothelial cells; type: cell-based, human; conditions: increasing concentrations up to 1 μg/ml, 24 hours, data not shown
[2] = patients; cited from earlier work
VCAM-1 = conditions: previous work; cited from earlier work

| Molecule | VCAM-1 expression above baseline 2 days after treatment [1] [%] | effect on cell viability (LP9 mesothelial cells) | injected dose excreted within 24 hours [2] | affinity for VCAM-1 (VCAM-1) |
| --- | --- | --- | --- | --- |
| N.N.O=C([O-])C1(C(=O)[O-])CCC1.[Pt+2] [carboplatin] | 50 | None of the concentrations tested altered | up to 80% |  |
| (βAKTLLPTPGGS(PEG5000))KKKDOTAβA-NH2 [tVCAM-4] |  |  |  | high affinity |
